# Data from patent publication US5373012A, “5-fluoro-2,4,6-pyrimidinetriamine compounds” (The Upjohn Company, priority 1993, dated 1994).
# “And” between values parts separate entries of the source, which are not always exact repeats. Equal entries are not always repeated.
# Legend:
# [1] = in vivo hair growth assay using rats (shaved hair weighed every seven days); details: for Hair Growth: mean
# Procedure: The 5-fluoro minoxidil compounds were evaluated for hair growth in an in vivo hair growth assay using rats. Each rat is dosed with vehicle and drug, 200-500 microliters per day, 5 days per week. Every seven days the treated areas are shaved and the hair removed is weighed to compare normal untreated hair growth to the drug treated hair growth.
# [2] = cardiovascular effects in vivo in conscious beagle dogs (mean arterial pressure, heart rate); details: 1.5 mg/kg; N=1; FIG. 2; 5-fluoro minoxidil compared to minoxidil
# Procedure: The 5-fluoro minoxidil compounds were evaluated for cardiovascular effects in an in vivo test with beagle dogs. This test procedure is described in Humprey SJ, Zins GR, Whole Body and Regional Hemodynamic Effects of Minoxidil in the Conscious Dog, J. Card, Pharm. 6:979-88 (1984) and in Humprey, S.J., Zins, G.R., The Effects of Indomethacin on the Systemic and Regional Vasodilator Responses to Minoxidil in the Conscious Dog, Chem. Path. & Pharm. 59:1 3-20 (1988). Experiments were conducted using a radiolabeled tracer microspheres technique, Wagner NH et al., Studies of the Circulation with Radioactive Microspheres, Invest. Radiol. 4:374-86 (1969), with conscious beagle dogs. The results of a rapid evaluation (N=1) of the 5-fluoro minoxidil compound compared to minoxidil are presented in FIG. 1 change in Mean Arterial Pressure versus Time at the doses indicated and FIG. 2 Changes in Heart Rate versus Time at the doses indicated.
# [3] = transdermal absorption: urinary excretion of drug after topical application in rats; type: in vivo; details: for AVERAGE of total micrograms excreted: average of three rats, urine over 24 hours on fifth day; for AVERAGE of total micrograms excreted / TOTAL MICROGRAMS EXCRETED: 50/30/20 propylene glycol/ethanol/water; for TOTAL MICROGRAMS EXCRETED: individual rats 1-3, urine over 24 hours on fifth day after four days topical treatment
# Procedure: The ability of the 5-fluoro minoxidil to be absorbed in transdermal applications was measured versus minoxidil as a control. Three rats were treated with each compound for four days and on the fifth day their urine was collected over a 24 hour period. The urine was then analyzed for drug levels and converted to micrograms urine excreted per 24 hours. The compounds were administered in a 50/30/20 propylene glycol/ethanol/water vehicle.
# [4] = hair growth in stumptail macaque monkeys (balding scalp, hair weight change from baseline); type: in vivo, stumptail macaque (Macaca specoisa) monkeys; details: Table III; topical 100 mM in 50% propylene glycol/50% ethanol, sixteen weeks; vehicle -1.8 ± 2.7; mean±SEM
# Procedure: The 5-fluoro minoxidil compounds were evaluated in the macaque monkey models and show significant hair growth results.
# Thirteen stumptail macaque (Macaca specoisa) monkeys (mixed sexes) were assigned to vehicle control and drug treated groups on the basis of baseline hair weight data.
# 1. Topical 50:50 vehicle (N=7)
# The control consisted of 50% propylene glycol, 50% ethanol. The experimental composition consisted of a 100 mM concentration of topical 5-fluoro minoxidil formulated in the control vehicle. Immediately prior to the dosing phase of the study, hair was removed from a 1 inch square area (identified by four tattoos) in the center of the balding scalp. This hair collection was the baseline hair growth determination prior to the beginning of treatment. Approximately 250 μL of vehicle or 100 mM 5-fluoro minoxidil (prepared in vehicle)were topically administered to the tattooed area of the scalp. The monkeys were dosed once per day, five days per week for sixteen weeks.
# At four week intervals throughout the dosing phase of the study, each monkey was shaved and the hair was collected and weighed. The body weight data (at baseline and during assay) were analyzed by the nonparametric Wilcoxon rank-sum test. Differences were significant at p<0.05. The hair weight data (mean±SEM) at each 4 week collection for vehicle and treatment groups were expressed as the change from baseline. […]
Compound,statistical difference (p) between the two agents in level of hair growth stimulation ([1]; 100 mM minoxidil vs 25 mM 5-fluoro-minoxidil),"Hair Growth ([1]; Table II, 100 mM minoxidil in 100% PG (propylene glycol), 100% PG alone +0.487)",change in Heart Rate [2],AVERAGE of total micrograms excreted [3] [MICROGRAMS],TOTAL MICROGRAMS EXCRETED [3],Hair Growth (cumulative change in hair weight from baseline) [4],"Hair Growth ([1]; Table I, 1 mM, topical, vehicle 50/30/20 propylene glycol/ethanol/water, vehicle +0.527 ± 0.081)","Hair Growth ([1]; Table I, 5 mM, topical, vehicle 50/30/20 propylene glycol/ethanol/water, vehicle +0.527 ± 0.081)","Hair Growth ([1]; Table I, 25 mM, topical, vehicle 50/30/20 propylene glycol/ethanol/water, vehicle +0.527 ± 0.081)","Hair Growth ([1]; Table II, 25 mM 5-fluoro-minoxidil in 50/30/20 propylene glycol/ethanol/water, vehicle +0.528)",transdermal transport properties versus unsubstituted minoxidil ([3]; in words),"absorption versus minoxidil ([3]; transdermal, rats, in words)"
"Nc1cc(N2CCCCC2)nc(N)[n+]1[O-] [Minoxidil, reference compound]",no statistical difference,+1.065 mg/in^2 /day,increases in heart rate,454,354 MICROGRAMS and 358 MICROGRAMS and 651 MICROGRAMS,–,–,–,–,–,–,–
"Nc1nc(N2CCCCC2)c(F)c(N)[n+]1[O-] [5-fluoro minoxidil, 5-Fluoro-6-piperidinyl-2,4-pyrimidinediamine, 3-Oxide]",–,–,–,1427,1229 MICROGRAMS and 1132 MICROGRAMS and 1921 MICROGRAMS,+14.8 ± 3.1 mg,+0.609 ± 0.083 mg/in^2 /day,+0.760 ± 0.153 mg/in^2 /day,+0.952 ± 0.149 mg/in^2 /day,+0.938 mg/in^2 /day,superior transdermal transport properties over unsubstituted minoxidil,superior absorption over the minoxidil control
